Among the data in BindingDB's records for doi:10.1016/j.bmcl.2009.04.116 (Banyu Pharmaceutical, 2009) are EC50 values, retold here.

Each structure is given as a SMILES string.

The target in one test is Nociceptin receptor (Homo sapiens, UniProt P41146). As to the kind of experiment: In Vitro Binding Assay (IC50) and In Vitro Agonism/Antagonism Measurements (EC50/IC50).
Chain of Nociceptin receptor (P41146 whole entry): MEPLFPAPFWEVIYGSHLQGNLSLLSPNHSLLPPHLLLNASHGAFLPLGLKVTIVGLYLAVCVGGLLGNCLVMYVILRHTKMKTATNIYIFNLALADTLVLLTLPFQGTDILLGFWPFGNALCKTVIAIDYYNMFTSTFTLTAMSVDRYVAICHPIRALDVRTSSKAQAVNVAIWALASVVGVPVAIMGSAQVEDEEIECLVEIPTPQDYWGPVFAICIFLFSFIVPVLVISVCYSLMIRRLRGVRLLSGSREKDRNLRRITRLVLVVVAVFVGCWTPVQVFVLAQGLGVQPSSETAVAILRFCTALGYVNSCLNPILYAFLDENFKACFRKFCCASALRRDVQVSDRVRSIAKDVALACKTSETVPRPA
Conditions: not given
Here is the method: IC50 values are calculated using GraphPad Prism. Agonist/antagonist activities were measured by the [35S]GTPgamma-S binding to proteins using membrane fractions of CHO cells expressing ORL1. Nonspecific binding is determined in the presence of 10 uM unlabeled GTPgammaS. Membrane-bound radioactivity is measured using a TopCount-HTS (PerkinElmer). Specific binding of [35S]GTPgammaS is determined as a difference between the control (in the presence of appropriate concentration of nociceptin), and the baseline (in the presence of DMSO instead of compound). EC50/IC50 values are calculated from % of specific binding in the presence of various concentration of the compound using GraphPad Prism 3.03.
`Cc1ccc(-c2c(C)c(CNC3CCCC3F)nn2-c2ncccc2Cl)cn1` (stereo not drawn) [arylpyrazole, 27]: the response was half-maximal at 7.1 nM (EC50). Still for that read-out and setting: with `Cc1ccc(-c2c(C)c(CNC3CCC(F)(F)C3)nn2-c2ncccc2Cl)cn1` (stereo not drawn) [arylpyrazole, 29] the figure was 4.5 nM; with `Cc1ncc(-c2c(C)c(CNC3CCCC3)nn2-c2ncccc2Cl)cc1F` [arylpyrazole, 30], 1.2 nM. The same measure, in the same setting: with `Cc1ccc(-c2c(C)c(CN[C@H]3CC[C@@H](F)C3)nn2-c2ncccc2Cl)cn1` [arylpyrazole, 28] the figure was 1 nM; with `Cc1ncc(-c2c(C)c(CN[C@H]3CC[C@@H](F)C3)nn2-c2ncccc2Cl)cc1F` [arylpyrazole, 31], 0.31 nM.

Still in this test, the particulars now being: pH 7.4; 37 °C.
In the case of `Cc1c(CNC(C)C)nn(-c2ccc(Cl)cc2Cl)c1-c1ccc(Cl)cc1` [arylpyrazole, 1], the EC50 is 480 nM. On the same count and under the same terms, the figure for `Cc1ccc(-c2c(C)c(CNC3CCCC3)nn2-c2ncccc2Cl)cn1` [arylpyrazole, 19] is 4.7 nM; for `Cc1c(CNC2CCCC2)nn(-c2ncccc2Cl)c1-c1ccc(Cl)nc1` [arylpyrazole, 18] it is 12 nM.

In general, EC50 refers to the midpoint of the concentration-response curve.
